Counter-ions that a name gives are not always drawn.
Target: T1, DMT1 (Homo sapiens, UniProt P49281)
T1 sequence (P49281 1-568): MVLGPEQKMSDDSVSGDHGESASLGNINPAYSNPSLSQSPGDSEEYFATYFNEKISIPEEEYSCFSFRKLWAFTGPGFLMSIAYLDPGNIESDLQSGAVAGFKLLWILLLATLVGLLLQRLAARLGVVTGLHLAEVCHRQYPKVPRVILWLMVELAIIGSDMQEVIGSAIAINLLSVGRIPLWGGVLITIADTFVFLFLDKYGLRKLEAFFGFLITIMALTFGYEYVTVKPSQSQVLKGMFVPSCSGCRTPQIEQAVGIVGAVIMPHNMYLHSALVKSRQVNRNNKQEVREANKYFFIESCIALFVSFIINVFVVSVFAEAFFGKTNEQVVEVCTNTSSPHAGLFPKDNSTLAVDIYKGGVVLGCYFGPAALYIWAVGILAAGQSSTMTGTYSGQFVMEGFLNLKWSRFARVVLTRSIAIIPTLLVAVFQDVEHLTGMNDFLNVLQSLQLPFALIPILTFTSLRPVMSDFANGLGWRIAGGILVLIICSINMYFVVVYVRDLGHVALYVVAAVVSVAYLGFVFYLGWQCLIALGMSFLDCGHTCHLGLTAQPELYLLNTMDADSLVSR
Experiment: DMT1 Activity Assay (In Vitro Assay)
Format: cell-based
Conditions: read-out: IC50 Activity Level
Excerpt: In particular, identification of the compounds of the invention ability to modulate, preferably to inhibit, DMT1 activity, can be assessed using a variety of in vitro and in vivo assays, for measuring uptake of reduced iron (Fe^2+). One such protocol involves the screening of chemical agents for ability to modulate the activity of DMT1 thereby identifying it as a modulating agent. The in vitro activity of DMT1 can be measured in cell based assays by either directly measuring iron flux (using a radioactively labelled iron ^55Fe) or by measuring the fluorescence of a cell permeable iron fluorophore such as calcein. Stable cell lines overexpressing DMT1 are exposed to ^55Fe or loaded with calcein and then compound is applied. […] Alternatively, in another format electrophysiological techniques can be used to measure the current or iron or other metals traversing the cell membrane with DMT1 in a Xenopus oocyte or other cell based system (Gunshin et al., Nature, 1997, 31; 388(6641):482-8).
This example discloses various in vitro assay for testing and profiling test agents against DMT1 stably expressed in cells of either an endogenous or recombinant origin. These assays can use stable cell lines overexpressing DMT1 or intestinal cells and intestinal tissue expressing endogenous DMT1. DMT1 function could also be assessed in other cell types that express DMT1. Of greatest relevance would be the erythrocytes (e.g. K562 cells) or hepatocytes (e.g. […]).
DMT1 function can be assessed in a number of ways, including monitoring fluorescence changes of an iron fluorophore (e.g. calcein), monitoring uptake of radiolabelled iron (55Fe or ^59Fe) (Picard et al., J. Biol. Chem., 2000, 275(46):35738-45 and Wetli et al., Chem. Biol. 2006 September; 13(9):965-72), or by assessing the current or transport of iron and other metals into the cells or tissues using standard electrophysiological techniques (Gunshin et al., Nature, 1997, 388(6641):482-8.).
Variations of these assays involve alterations of incubation times, the iron status of the cells and tissues (which may be modulated by chemical chelators or by harvesting from iron deficient animals), the metal cation detected and the pH of the reaction can generally be made by conventional techniques known to those skilled in the art.

Compound | IC50 [µM]
CC(SC(=N)N)c1ccccc1Oc1ccccc1C(C)SC(=N)N (stereo not shown) [Example 1, 2-(1-{2-[2-(1-carbamimidoylsulfanylethyl)phenoxy]phenyl}ethyl)-isothiourea dihydrobromide] | ≥ 1
N=C(N)SCc1ccccc1Sc1ccc(F)cc1CSC(=N)N [Example 1.2, 2-[2-(2-carbamimidoylsulfanylmethyl-4-fluorophenylsulfanyl)benzyl]-isothiourea dihydrobromide] | 0.1 to 1
Cc1ccc(CSC(=N)N)c(Sc2ccccc2CSC(=N)N)c1 [Example 1.3, 2-[2-(2-carbamimidoylsulfanylmethyl-5-methylphenylsulfanyl)-benzyl]isothiourea dihydrobromide] | ≥ 1
COc1ccc(Sc2ccccc2CSC(=N)N)c(CSC(=N)N)c1 [Example 1.4, 2-[2-(2-carbamimidoylsulfanylmethyl-4-methoxyphenylsulfanyl)-benzyl]isothiourea dihydrobromide] | ≥ 1
N=C(N)SCc1cc(F)ccc1Sc1cc(Cl)ccc1CSC(=N)N [Example 1.7, 2-[2-(2-carbamimidoylsulfanylmethyl-5-chloro-phenylsulfanyl)-5-fluoro-benzyl]-isothiourea dihydrobromide] | 0.1 to 1
N=C(N)SCc1ccccc1Sc1cc(Cl)ccc1CSC(=N)N [Example 1.11, 2-[2-(2-carbamimidoylsulfanylmethyl-5-chlorophenylsulfanyl)-benzyl]isothiourea dihydrobromide] | 0.1 to 1
N=C(N)SCc1ccccc1Sc1ccc2ccccc2c1CSC(=N)N [Example 1.13, 2-[2-(1-carbamimidoylsulfanylmethylnaphthalen-2-ylsulfanyl)benzyl]-isothiourea dihydrobromide] | ≥ 1
N=C(N)SCc1cc(F)ccc1Sc1ccc2ccccc2c1CSC(=N)N [Example 1.14, 2-[2-(1-carbamimidoylsulfanylmethylnaphthalen-2-ylsulfanyl)-5-fluorobenzyl]isothiourea dihydrobromide] | ≥ 1
N=C(N)SCc1cc(F)ccc1Sc1ccc(C(F)(F)F)cc1CSC(=N)N [Example 1.18, 2-[2-(2-carbamimidoylsulfanylmethyl-4-fluorophenylsulfanyl)-5-(trifluoromethyl)benzyl]isothiourea dihydrobromide] | ≥ 1
CCNc1ccc(Sc2ccccc2CSC(=N)N)c(CSC(=N)N)c1 [Example 1.21, 2-[2-(2-carbamimidoylsulfanylmethylphenylsulfanyl)-5-ethylaminobenzyl]isothiourea trihydrobromide] | ≥ 1
N=C(N)SCCc1ccccc1Sc1ccccc1CSC(=N)N [Example 1.25, 2-[2-(2-carbamimidoylsulfanylethylphenylsulfanyl)benzyl]isothiourea dihydrobromide] | ≥ 1
N=C(N)SCc1ccccc1Sc1ccc(Cl)cc1CSC(=N)N [Example 1.26, 2-[2-(2-carbamimidoylsulfanylmethylphenylsulfanyl)-5-chlorobenzyl]-isothiourea dihydrobromide] | 0.1 to 1
N=C(N)SCc1ccccc1Sc1ccc(C(F)(F)F)cc1CSC(=N)N [Example 1.27, 2-[2-(2-carbamimidoylsulfanylmethylphenylsulfanyl)-5-(trifluoromethyl)benzyl]isothiourea dihydrobromide] | ≥ 1
CNC(=N)SCc1ccccc1Sc1ccccc1CSC(=N)NC [Example 1.29, 2-[2-(2-methylcarbamimidoylsulfanylmethylphenylsulfanyl)benzyl]-methylisothiourea dihydrobromide] | ≥ 1
CS(=O)(=O)c1ccc(Sc2ccc(F)cc2CSC(=N)N)c(CSC(=N)N)c1 [Example 1.30, 2-[2-(2-carbamimidoylsulfanylmethyl-4-fluorophenylsulfanyl)-5-(methylsulfonyl)benzyl]isothiourea dihydrobromide] | 0.1 to 1

The remaining lines, values ahead:

IC50 [µM] | Compound
0.1 to 1 | N=C(N)SCc1ccccc1Sc1ccccc1CSC(=N)N [Example 1.1, 2-[2-(2-carbamimidoylsulfanylmethylphenylsulfanyl)benzyl]isothiourea dihydrobromide]
≥ 1 | Cc1ccc(CSC(=N)N)c(Sc2ccc(F)cc2CSC(=N)N)c1 [Example 1.5, 2-[2-(2-carbamimidoylsulfanylmethyl-5-methylphenylsulfanyl)-5-fluorobenzyl]isothiourea dihydrobromide]
0.1 to 1 | COc1ccc(Sc2ccc(F)cc2CSC(=N)N)c(CSC(=N)N)c1 [Example 1.6, 2-[2-(2-carbamimidoylsulfanylmethyl-4-methoxyphenylsulfanyl)-5-fluorobenzyl]isothiourea dihydrobromide]
≥ 1 | Cc1cccc(CSC(=N)N)c1Sc1ccccc1CSC(=N)N [Example 1.8, 2-[2-(2-carbamimidoylsulfanylmethyl-6-methylphenylsulfanyl)-benzyl]isothiourea dihydrobromide]
0.1 to 1 | N=C(N)SCc1ccccc1Sc1cc(F)c(F)cc1CSC(=N)N [Example 1.9, 2-[2-(2-carbamimidoylsulfanylmethyl-4,5-difluorophenylsulfanyl)-benzyl]isothiourea dihydrobromide]
0.1 to 1 | Cc1ccc(Sc2ccccc2CSC(=N)N)c(CSC(=N)N)c1 [Example 1.10, 2-[2-(2-carbamimidoylsulfanylmethyl-4-methylphenylsulfanyl)-benzyl]isothiourea dihydrobromide]
0.1 to 1 | N=C(N)SCc1ccccc1Sc1cc(F)ccc1CSC(=N)N [Example 1.12, 2-[2-(2-carbamimidoylsulfanylmethyl-5-fluorophenylsulfanyl)benzyl]-isothiourea dihydrobromide]
0.1 to 1 | N=C(N)SCc1cc(F)ccc1Sc1cc(F)ccc1CSC(=N)N [Example 1.15, 2-[2-(2-carbamimidoylsulfanylmethyl-5-fluorophenylsulfanyl)-5-fluorobenzyl]isothiourea dihydrobromide]
0.1 to 1 | N=C(N)SCc1cc(F)ccc1Sc1cc(F)c(F)cc1CSC(=N)N [Example 1.16, 2-[2-(2-carbamimidoylsulfanylmethyl-4,5-difluorophenylsulfanyl)-5-fluorobenzyl]isothiourea dihydrobromide]
≥ 1 | N=C(N)SCc1cc(F)ccc1Sc1c(CSC(=N)N)cccc1[N+](=O)[O-] [Example 1.17, 2-[2-(2-carbamimidoylsulfanylmethyl-4-fluorophenylsulfanyl)-3-nitrobenzyl]isothiourea dihydrobromide]
0.1 to 1 | N=C(N)SCc1ccccc1Sc1ccc(N)cc1CSC(=N)N [Example 1.19, 2-[2-(2-carbamimidoylsulfanylmethylphenylsulfanyl)-5-aminobenzyl]-isothiourea trihydrobromide]
0.1 to 1 | N=C(N)SCc1cc(F)ccc1Sc1ccc(Cl)cc1CSC(=N)N [Example 1.20, 2-[2-(2-carbamimidoylsulfanylmethyl-4-chlorophenylsulfanyl)-5-fluorobenzyl]isothiourea dihydrobromide]
≥ 1 | N=C(N)SCc1cc(Cl)ccc1Sc1ccc(Cl)cc1CSC(=N)N [Example 1.22, 2-[2-(2-carbamimidoylsulfanylmethyl-4-chlorophenylsulfanyl)-5-chlorobenzyl]isothiourea dihydrobromide]
0.1 to 1 | N=C(N)SCCc1cc(F)ccc1Sc1ccc(F)cc1CSC(=N)N [Example 1.23, 2-[2-(2-carbamimidoylsulfanylethyl-4-fluorophenylsulfanyl)-5-fluorobenzyl]isothiourea dihydrobromide]
0.1 to 1 | N=C(N)SCCc1cc(Cl)ccc1Sc1ccc(F)cc1CSC(=N)N [Example 1.24, 2-[2-(2-carbamimidoylsulfanylethyl-4-chlorophenylsulfanyl)-5-fluorobenzyl]isothiourea dihydrobromide]
0.1 to 1 | CN(c1ccccc1CSC(=N)N)c1ccccc1CSC(=N)N [Example 1.28, 2,2′-(methylazanediyl)bis(2,1-phenylene)bis-(methylene)dicarbamimidothioate trihydrobromide]

Reference: patent publication US20080234384A1, “BIARYL AND BIHETEROARYL COMPOUNDS USEFUL IN TREATING IRON DISORDERS” (XENON PHARMACEUTICALS INC., priority 2007, published 2008)
